What is called IC50 is the concentration needed to halve the response being measured. Usually EC50 stands for the concentration that produces a half-maximal response. Usually Tmax stands for the time from dosing to the highest level. Usually Cmax stands for the highest concentration seen after dosing.

Read-outs that look alike come from different tables or passages of the source.

One data set deals with T1, cathepsin B (Homo sapiens, UniProt P07858).
T1 construct: purchased RD Systems 953-CY-010
Description: Cathepsin B enzymatic assay. It counts as biochemical. On the procedure: Assays contained 0.6 nM cathepsin B (RD Systems: 953-CY-010), 25 µM Z-LR-AMC, and 100 nL of test compound in 100% DMSO in a total of 10 µL of 50 mM MES, pH 5.0, 150 mM NaCl, 0.05% CHAPS, and 5 mM DTT in black low volume 384-well plates. The production of AMC was followed at 5-min intervals at 355 nm excitation and 460 nm emission in an Envision microplate reader (PerkinElmer). Reaction rates were determined by linear regression of the resulting progress curves. Rates were normalized to percent inhibition, where 0% is equal to the rate in the presence enzyme, and 100% is equal to the rate in the absence of enzyme. Nonlinear regression fits of the data to a one-site dose-response curve were performed using XLFit (IDBS).

For data set [1], the system named is SARS-CoV-2 Beta (B.1.351). Briefly: microbe, parasite or virus in culture. The class given is cell-based. The following applies: Severe acute respiratory syndrome coronavirus 2, Vero C1008, 48 h; read-out: EC50 viral high-content imaging assay.
A short description of data set [2]: Hamster pharmacokinetics (plasma and lung). The class given is in vivo. On the procedure: Fig 10 […] pharmacokinetics of 1. Mean plasma and lung concentration-time profiles of compound 1 after single i.p. dose at 10 mg/kg in male hamster (N = 3/time point). In-life parameters of compound 1 are provided for plasma and lung.
To monitor pharmacokinetics of compound 1 following single intraperitoneal administration to male hamsters, compound 1 was prepared prior to use in 10% DMSO, 10% Solutol HS 15, plus 80% PBS in a concentration of 2 mg/mL by weighing 19.65 mg of compound 1 into a new vial and then adding 0.982 mL DMSO into the vial containing the compound and vortexing the vial for 2 min. In addition, 0.982 mL Solutol HS 15 was then added into the vial containing the compound, and the vial was vortexed for 2 min. Also, 7.860 mL of PBS was then added into the vial which was further vortexed for 3 min and sonicated for 0.5 min. Male hamsters weighing 89 g–104 g (N = 18) were purchased from Beijing Weitong Lihua Laboratory Animal Co. Ltd. Hamsters were fasted overnight and fed at 4 h post-dosing. The compound was administered 10 mg/kg (5 mL/kg) via intraperitoneal injection. Sampling was done at 0.25, 0.5, 1, 2, 4, and 6 h post dose, six time points, by terminal bleeding for plasma and lung at each time point. Approximately 150 µL blood/time point was collected into the K2EDTA tube via the jugular vein. The blood sample was put on wet ice and centrifuged to obtain a plasma sample (2,000 g, 5 min under 4°C) within 15 min. Lung collection was performed by making a mid-line incision in the animals’ chest and abdomen, the skin was retracted, and the lung was exposed after cutting off the ribs and removing other organs using surgical scissors and forceps. The lung was removed using surgical scissors and then rinsed with cold saline. The lung was placed in screw-top tubes and then stored under −70°C until analysis. Lung tissue was homogenized for 2 min with two volumes (vol/wt) of PBS (pH 7.4) immediately before analysis by LC-MS/MS.

The target of another data set is T2, cathepsin L (Homo sapiens, UniProt P07711).
T2 construct: purchased RD Systems 952-CY-010
T2 sequence (P07711 114-333): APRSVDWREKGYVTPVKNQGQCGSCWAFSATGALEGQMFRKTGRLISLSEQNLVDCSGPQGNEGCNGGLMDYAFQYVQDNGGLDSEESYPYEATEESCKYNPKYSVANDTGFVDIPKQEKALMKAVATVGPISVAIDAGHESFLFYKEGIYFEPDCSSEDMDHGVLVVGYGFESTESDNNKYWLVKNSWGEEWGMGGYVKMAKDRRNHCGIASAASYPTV
Description: Cathepsin L enzymatic assay. The class given is biochemical. On the procedure: The assays contained 25 pM cathepsin L (RD Systems: 952-CY-010), 5 µM LR-AMC, 100 nL of test compound in 100% DMSO, in a total of 10 µL of 20 mM potassium phosphate, pH 6.0, 150 mM NaCl, 0.005% Tween20, and 5 mM DTT in black low volume 384-well plates. The production of AMC was followed at 5-min intervals with excitation at 355 nm and emission at 460 nm using an Envision microplate reader (PerkinElmer). Reaction rates were determined by linear regression of the resulting progress curves. […] Nonlinear regression fits of the data to a one-site dose-response curve were performed using XLFit (IDBS).

In data set [3] the test system is SARS-CoV-2 Delta (B.1.617). Briefly: microbe, parasite or virus in culture. The class given is cell-based. The following applies: Severe acute respiratory syndrome coronavirus 2, Vero C1008, 48 h; read-out: EC50 viral high-content imaging assay.
Data set [4] in a line: Mouse liver microsome stability assay. As to conditions: microsomes. As to the method: Test compounds (0.5 µM) were incubated with liver microsomes ([…]) and an NADPH-regenerating system (cofactor solution), and samples were taken at various time points, quenched with an acetonitrile solution containing an internal standard, and then analyzed by liquid chromatography with tandem mass spectrometry (LC-MS/MS). […] For the 0-min time point, 135 µL of acetonitrile (ACN) containing internal standard (IS) was added to the wells of a 0-min plate, followed by the addition of 15 µL of NADPH stock solution (6 mM). All other plates were pre-incubated at 37°C for 5 min. Fifteen microliters of NADPH stock solution (6 mM) was then added to the plates to start the reaction and timing. […] Fifty microliters of supernatant was then transferred from each well into a 96-well sample plate containing 50 µL of ultra-pure water for LC/MS analysis.
For orientation: Liver microsomes are vesicles of endoplasmic reticulum, rich in cytochrome P450 enzymes.

For the next data set, the system named is SARS-CoV-2 WT (WA1/2020). Briefly: Live virus high-content imaging assay (nucleocapsid expression), WT. As to conditions: Severe acute respiratory syndrome coronavirus 2, Vero C1008, Vero-E6 cells, 48 h infection, read-out: EC50 viral high-content imaging assay. The class given is cell-based.
The next data set concerns the target T3, thrombin (Homo sapiens, UniProt P00734).
T3 construct: purchased RD Systems 1473-SE-010
Description: Thrombin enzymatic assay. It counts as biochemical. As to the method:
Assays contained 25 pM thrombin (RD Systems: 1473-SE-010), 25 µM BOC-PVR-AMC, and 100 nL of test compound in 100% DMSO, in a total of 10 µL of 50 mM Tris, pH 7.0, 100 mM NaCl, 10 mM CaCl2, and 0.005% Tween20 in black low volume 384-well plates. The production of AMC was followed at 5-min intervals at 355 nm excitation and 460 nm emission in an Envision microplate reader (PerkinElmer). Reaction rates were determined by linear regression of the resulting progress curves. […] Nonlinear regression fits of the data to a one-site dose-response curve were performed using XLFit (IDBS).

Data set [5] has as its system SARS-CoV-2 (B.1.1.529/Omicron). As to conditions: for mean reduction in SARS-CoV-2 genomic RNA (E gene) in lung tissue: 1 at 100 mg/kg, PF-332 at 50 mg/kg i.p. b.i.d.
Data set [6] deals with SARS-CoV-2 Omicron (B.1.1.529). Description: microbe, parasite or virus in culture. The class given is cell-based. As to conditions: Severe acute respiratory syndrome coronavirus 2, Vero C1008, 48 h; read-out: EC50 viral high-content imaging assay.
A further data set addresses SARS-CoV-2 Mpro (Severe acute respiratory syndrome coronavirus 2, UniProt P0DTC1). Description: biochemical. As to conditions: Mpro enzymatic assay. It counts as biochemical.
[7] abbreviates: enzyme assay, at least 10-point dose-response curves in duplicate, read-out: CatB IC50.
Setting [8] is: single IP dose at 10 mg/kg in male hamster.
The mark [9] stands for this setting: single i.p. dose at 10 mg/kg in male hamster.
The mark [10] stands for this setting: enzyme assay, at least 10-point dose-response curves in duplicate, read-out: CatL IC50.
The mark [11] stands for this setting: enzyme assay, at least 10-point dose-response curves in duplicate, read-out: Thrombin IC50.

Consider `O=C(CN1C(=O)C(NC(=O)OCc2ccccc2)COc2ccccc21)NC(CC1CCNC1=O)C(=O)COC(=O)c1c(Cl)cccc1Cl` (centres unmarked) [Compound 1], for which the IC50 on cathepsin B (as stated in text: no substantial inhibition, read-out: cathepsin B IC50) was more than 15000 nM; at cathepsin B (setting [7]), 18000 nM; at cathepsin L (as stated in text: no substantial inhibition, read-out: cathepsin L IC50), more than 15000 nM; on cathepsin L (setting [10]), more than 32000 nM; on thrombin (setting [11]), more than 32000 nM. Further, the EC50 stood at 3100 nM in data set [1], 3000 ± 2400 nM in [3], 2100 ± 2100 nM in the data set on SARS-CoV-2 WT (WA1/2020) and 900 ± 900 nM in [6]. In data set [2] (lung / plasma, single IP dose at 10 mg/kg in male hamster, read-out: AUClung/AUCplasma), the Kp came out at 3.2. Also, the half-life in data set [2] (lung, single IP dose at 10 mg/kg in male hamster, read-out: lung T1/2 (converted)) is 48.6 min; in data set [2] (plasma, single IP dose at 10 mg/kg in male hamster, read-out: plasma T1/2 (converted)) it was 44 min. Also, the Tmax was 30 min in [2] (lung, single IP dose at 10 mg/kg in male hamster, read-out: lung Tmax) and 15 min in data set [2] (plasma, single IP dose at 10 mg/kg in male hamster, read-out: plasma Tmax). The compound also gave a Cmax in data set [2] (plasma, single IP dose at 10 mg/kg in male hamster) of 990 ng/mL. Also, the AUC(0-inf) in data set [2] (plasma, single IP dose at 10 mg/kg in male hamster, read-out: plasma AUCINF) came to 1830 ng·h/mL. Besides, in data set [2] (plasma, single IP dose at 10 mg/kg in male hamster, read-out: plasma AUClast), the AUC(0-t) turned out to be 1820 ng·h/mL. The “lung AUCINF” value in data set [2] (setting [8]) came out at 5854 ng·h/g. In addition, the “lung AUClast” value in [2] (setting [8]) amounted to 5818 ng·h/g. In addition, the “lung Cmax” value in data set [2] (setting [8]) came out at 3623 ng/g. For the same compound, in data set [2] (setting [9]), the “clinical symptoms during the in-life phase” value is recorded as “no abnormal clinical symptoms observed”. Further, the “concentration achieved in the lung” value in data set [2] (setting [9]) is “about 8 µM”. For the same compound, the half-life at 0.5 µM in data set [4] is less than 2 min. The “mean reduction in SARS-CoV-2 sub-genomic RNA (N gene) in lung tissue” value in [5] ([…], 100 mg/kg i.p. b.i.d., versus vehicle, P = 0.002) is 2.0 log. Besides, the “mean reduction in SARS-CoV-2 genomic RNA (E gene) in lung tissue” value in [5] ([…], versus vehicle) is on record as 0.5 log. Also, the “lung histopathology scores (H&E) compared to vehicle-treated SGH” value in data set [5] (hamster, in vivo) was “did not observe any significant difference”. For the same compound, in [5] (hamster, in vivo), the “reduction in SARS-CoV-2 viral titer from lung tissue” value amounted to 32.6%. In addition, the “toxicities or behavioral abnormalities during dosing” value in [5] (hamster, in vivo) is given as “no obvious toxicities or behavioral abnormalities”.

In the case of `N[C@H]1COc2ccccc2N(CC(=O)N[C@@H](C[C@@H]2CCNC2=O)C(=O)COC(=O)c2c(Cl)cccc2Cl)C1=O` [Compound 9], the half-life at 0.5 µM in data set [4] (mouse) is less than 2 min.

For `COc1cccc2[nH]c(C(=O)N[C@@H](CC(C)C)C(=O)N[C@@H](C[C@@H]3CCNC3=O)C(=O)COC(=O)c3c(Cl)cccc3Cl)cc12` [Compound 18, reference compound], the IC50 was determined as 24 ± 7.5 nM on cathepsin B (setting [7]) and 1.8 nM on cathepsin L (setting [10]). This compound also showed a half-life at 0.5 µM in data set [4] of less than 2 min. Besides, at SARS-CoV-2 Mpro, the “time to achieve maximum inhibition” value is on record as not above 10 min.

`O=C(CN1C(=O)[C@@H](NC(=O)c2ccccc2)COc2ccccc21)N[C@@H](C[C@@H]1CCNC1=O)C(=O)COC(=O)c1c(Cl)cccc1Cl` [Compound 19]: on cathepsin B (setting [7]), the IC50 was determined as 13000 nM. In data set [4], this compound had a half-life at 0.5 µM of less than 2 min.

For the compound `O=C(CN1C(=O)[C@@H](NC(=O)c2ccc3ccccc3n2)COc2ccccc21)N[C@@H](C[C@@H]1CCNC1=O)C(=O)COC(=O)c1c(Cl)cccc1Cl` [Compound 20], the IC50 was 1800 nM at cathepsin B (setting [7]), 23100 nM at cathepsin L (setting [10]) and more than 32000 nM at thrombin (setting [11]). This compound yielded a half-life at 0.5 µM in [4] of less than 2 min.

On to `O=C(CN1C(=O)[C@@H](NC(=O)OCc2ccccc2)COc2ccccc21)N[C@@H](C[C@@H]1CCNC1=O)C(=O)COc1cc(C(F)(F)F)nn1-c1ccc(F)cc1` [Compound 21], for which the IC50 at cathepsin B (setting [7]) was 27000 nM; at cathepsin L (setting [10]) it was more than 32000 nM; at thrombin (setting [11]) it was more than 32000 nM.

Regarding `CC(C)C[C@H](NC(=O)OCc1ccccc1)C(=O)N[C@@H](C[C@@H]1CCNC1=O)C(O)S(=O)(=O)O` (some centres unmarked) [GC-376, reference compound], the IC50 against cathepsin B is 37 ± 15 nM; against cathepsin L, 0.05 nM; on thrombin it was more than 10000 nM. Moreover, the concentration for a half-maximal effect (EC50) in data set [3] worked out at 600 nM; in the data set on SARS-CoV-2 WT (WA1/2020), 300 ± 500 nM; in data set [6], 400 ± 500 nM.

On to `CC(C)(C)[C@H](NC(=O)C(F)(F)F)C(=O)N1C[C@H]2[C@@H]([C@H]1C(=O)N[C@H](C#N)C[C@@H]1CCNC1=O)C2(C)C` [nirmatrelvir, reference compound], for which the “reduction in N sub-genomic RNA in lung tissue” value in data set [5] ([…], 50 mg/kg i.p. b.i.d., versus vehicle) was 5.2 fold. For the same compound, the “mean reduction in SARS-CoV-2 genomic RNA (E gene) in lung tissue” value in data set [5] ([…], versus vehicle) worked out at 3.0 log.

The values are drawn from PMC11459967 (Antimicrobial Agents and Chemotherapy, 2024).
